Assay results from patent US20070254312A1, “Protein Kinase Inhibitors and Methods for Identiying Same” (priority 2004, published 2007).
Starred links: 1 amine or outer side, 2 acyl side, 3 side chain; linkers in the order of their positions; H or OH if unused. Non-standard residues stand in square brackets, D forms with d. Residues, ends and D or L forms follow the SMILES beside them. *: point of attachment. Benzoyl(4-(pyrrol-1-yl)) = O=C(c1ccc(-n2cccc2)cc1)*; Phenylacetyl(3,4-Cl2) = O=C(Cc1ccc(Cl)c(Cl)c1)*; Cysteamide = C(CS[*:3])N[*:1]; Dap = NC[C@H](N)C(=O)O

Legend:
PKC β1 = PKC β1 (Homo sapiens, UniProt P05771); settings: literature values; relative to most potently inhibited isoform (=1); cited from earlier work
PKCε [1] = biological target: T1, PKCε (Homo sapiens, UniProt Q02156); test: PKC isoform assay, Example 1; type: biochemical; parameters: purchased Pan Vera
T1 sequence (Q02156 1-737): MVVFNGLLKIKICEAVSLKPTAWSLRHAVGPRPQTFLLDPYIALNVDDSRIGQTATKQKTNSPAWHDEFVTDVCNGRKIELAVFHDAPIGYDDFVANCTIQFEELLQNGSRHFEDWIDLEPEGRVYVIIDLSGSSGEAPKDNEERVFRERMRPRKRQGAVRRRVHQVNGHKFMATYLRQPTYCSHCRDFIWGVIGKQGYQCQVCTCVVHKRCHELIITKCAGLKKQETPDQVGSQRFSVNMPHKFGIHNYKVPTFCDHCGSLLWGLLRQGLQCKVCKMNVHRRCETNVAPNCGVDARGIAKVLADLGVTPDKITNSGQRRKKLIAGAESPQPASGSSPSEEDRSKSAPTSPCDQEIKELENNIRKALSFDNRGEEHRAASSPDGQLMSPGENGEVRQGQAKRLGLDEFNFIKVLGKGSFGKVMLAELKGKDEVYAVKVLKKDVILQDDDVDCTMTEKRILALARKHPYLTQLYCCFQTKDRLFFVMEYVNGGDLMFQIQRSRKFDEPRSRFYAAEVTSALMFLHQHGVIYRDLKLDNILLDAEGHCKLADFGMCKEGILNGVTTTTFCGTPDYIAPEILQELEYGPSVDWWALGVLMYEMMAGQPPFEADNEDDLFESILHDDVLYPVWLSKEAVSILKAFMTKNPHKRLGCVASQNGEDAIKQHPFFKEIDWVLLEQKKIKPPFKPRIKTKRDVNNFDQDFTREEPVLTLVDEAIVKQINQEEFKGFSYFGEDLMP
Procedure: (§1) Protein Kinase C Assay (general). The peptides Ac-Ser-Phe-Arg-Arg-Arg-NH2 (for PKC α, β and γ) and acetyl-[…]NH2 (for PKC ε and ζ) were used as substrates.
(§2) PKCε and ζ Assay (IC50 determinations). […] 10 μL enzyme diluted buffer containing 10 mM HEPES (pH 7.5), 10 mM DTT, BSA(3.8 mg/mL), 10 mM EDTA.4Na.2H2O and PKC (20 ng/μL) were added last to this buffer. Reactions were carried out as described above for the Protein Kinase Cα assay.

PKCζ [2] = biological target: T2, PKCζ (Homo sapiens, UniProt Q05513); test: PKC isoform assay, Example 1; type: biochemical; parameters: purchased Pan Vera
T2 sequence (Q05513 1-592): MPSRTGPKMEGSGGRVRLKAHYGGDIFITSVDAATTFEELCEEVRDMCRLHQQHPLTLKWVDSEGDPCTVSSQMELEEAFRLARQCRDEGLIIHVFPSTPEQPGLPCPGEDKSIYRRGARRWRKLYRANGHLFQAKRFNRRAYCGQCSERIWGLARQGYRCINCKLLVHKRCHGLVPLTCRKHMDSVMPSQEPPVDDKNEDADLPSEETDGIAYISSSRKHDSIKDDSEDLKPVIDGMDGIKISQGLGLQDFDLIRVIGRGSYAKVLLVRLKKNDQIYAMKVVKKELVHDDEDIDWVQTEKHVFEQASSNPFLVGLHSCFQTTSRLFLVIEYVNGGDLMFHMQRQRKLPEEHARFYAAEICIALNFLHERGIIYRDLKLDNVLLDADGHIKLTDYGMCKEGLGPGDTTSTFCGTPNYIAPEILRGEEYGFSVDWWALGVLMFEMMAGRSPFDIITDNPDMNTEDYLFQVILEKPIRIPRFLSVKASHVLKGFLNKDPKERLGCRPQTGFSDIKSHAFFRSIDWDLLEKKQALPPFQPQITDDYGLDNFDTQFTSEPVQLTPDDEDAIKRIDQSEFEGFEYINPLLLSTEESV
Procedure: as §1, §2

PKCγ = PKCγ (Homo sapiens, UniProt P05129); parameters: purchased Panvera; settings: literature values; relative to most potently inhibited isoform (=1); cited from earlier work
PKCε [3] = biological target: T1, PKCε; parameters: purchased Panvera; settings: literature values; relative to most potently inhibited isoform (=1); cited from earlier work
PKCθ = PKCθ (Homo sapiens, UniProt Q04759); parameters: purchased Panvera; settings: literature values; relative to most potently inhibited isoform (=1); cited from earlier work
PKCζ [4] = biological target: T2, PKCζ; parameters: purchased Panvera; settings: literature values; relative to most potently inhibited isoform (=1); cited from earlier work

PKCθ, sequence (Q04759 whole entry, canonical isoform): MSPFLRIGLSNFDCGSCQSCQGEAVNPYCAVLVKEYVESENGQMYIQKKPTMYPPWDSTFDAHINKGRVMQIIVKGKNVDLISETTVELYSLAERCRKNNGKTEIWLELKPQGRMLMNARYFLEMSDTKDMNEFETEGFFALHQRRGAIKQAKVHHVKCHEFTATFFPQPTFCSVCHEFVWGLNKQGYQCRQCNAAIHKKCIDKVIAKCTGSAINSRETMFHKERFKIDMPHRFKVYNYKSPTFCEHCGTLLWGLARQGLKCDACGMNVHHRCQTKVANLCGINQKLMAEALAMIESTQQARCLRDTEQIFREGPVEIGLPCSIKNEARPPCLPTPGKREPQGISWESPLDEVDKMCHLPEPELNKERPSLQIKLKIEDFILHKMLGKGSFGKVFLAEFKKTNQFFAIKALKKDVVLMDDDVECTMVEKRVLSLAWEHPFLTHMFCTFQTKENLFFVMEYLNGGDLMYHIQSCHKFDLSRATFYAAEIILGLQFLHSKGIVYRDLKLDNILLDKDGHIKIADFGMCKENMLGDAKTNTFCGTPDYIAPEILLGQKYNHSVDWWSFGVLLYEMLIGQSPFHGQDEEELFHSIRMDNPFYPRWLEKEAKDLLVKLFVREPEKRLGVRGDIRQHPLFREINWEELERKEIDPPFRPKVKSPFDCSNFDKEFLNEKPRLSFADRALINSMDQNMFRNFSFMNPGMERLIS
PKC β1, sequence (P05771 whole entry, canonical isoform): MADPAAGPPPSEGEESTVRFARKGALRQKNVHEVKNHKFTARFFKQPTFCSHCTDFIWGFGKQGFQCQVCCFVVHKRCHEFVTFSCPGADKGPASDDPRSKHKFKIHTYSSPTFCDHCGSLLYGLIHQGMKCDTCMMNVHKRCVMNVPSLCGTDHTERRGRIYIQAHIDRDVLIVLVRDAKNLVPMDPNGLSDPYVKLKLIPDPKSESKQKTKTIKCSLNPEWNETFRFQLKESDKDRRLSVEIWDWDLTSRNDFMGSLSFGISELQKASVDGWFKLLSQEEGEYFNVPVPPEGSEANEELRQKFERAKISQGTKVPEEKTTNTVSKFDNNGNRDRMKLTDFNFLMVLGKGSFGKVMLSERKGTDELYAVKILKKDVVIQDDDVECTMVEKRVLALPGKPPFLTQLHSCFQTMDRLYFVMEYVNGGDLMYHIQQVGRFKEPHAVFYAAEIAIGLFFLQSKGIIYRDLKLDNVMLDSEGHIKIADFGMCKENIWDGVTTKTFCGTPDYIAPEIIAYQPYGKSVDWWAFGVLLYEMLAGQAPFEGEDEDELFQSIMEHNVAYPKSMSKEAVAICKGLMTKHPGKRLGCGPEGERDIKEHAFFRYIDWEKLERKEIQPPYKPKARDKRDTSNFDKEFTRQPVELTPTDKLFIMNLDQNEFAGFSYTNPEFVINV

selectivity for PKCα versus PKCε (PKCε [1]): 600 fold
selectivity for PKCα versus PKCζ (PKCζ [2]): 640 fold
SMILES: CC(C)C[C@H](NC(=O)[C@H](C)NC(=O)CNC(=O)[C@H](CCCNC(=N)N)NC(=O)[C@H](CCCNC(=N)N)NC(=O)[C@H](C)NC(=O)Cc1ccc(Cl)c(Cl)c1)C(=O)N[C@@H](CCCNC(=N)N)C(=O)N[C@@H](CNC(=O)c1ccc(-n2cccc2)cc1)C(=O)N[C@@H](C)C(=O)NCCS [Compound 6] ({Phenylacetyl(3,4-Cl2)}-ARRGALR[Dap](Benzoyl(4-(pyrrol-1-yl)))A-Cysteamide)
Fold selectivity (IC50), PKC β1 (PKC β1): 385 fold
Fold selectivity (IC50), PKC γ (PKCγ): 580 fold
Fold selectivity (IC50), PKC ε (PKCε [3]): 600 fold
Fold selectivity (IC50), PKC θ (PKCθ): 1210 fold
Fold selectivity (IC50), PKC ζ (PKCζ [4]): 640 fold
